# Results reported in the kinase profiling compilation of Christmann-Franck et al. (2016).
# Experiments:
# Experiment in all cases: radiometric filter-binding kinase assay, Kinase HotSpot
# Settings in all cases: compound 0.5 µM; ATP 10 µM
# ACVRL1 (human) = ACVRL1 (human) (UniProt P37023)
# AKT1 (human) = AKT1 (human) (UniProt P31749)
# BLK (human) = BLK (human) (UniProt P51451)
# BRSK1 (human) = BRSK1 (human) (UniProt Q8TDC3)
# BRSK2 (human) = BRSK2 (human) (UniProt Q8IWQ3)
# CAMKK2 (human) = CAMKK2 (human) (UniProt Q96RR4)
# CDC42BPA (human) = CDC42BPA (human) (UniProt Q5VT25)
# CDC42BPA (human), sequence (Q5VT25 whole entry, looked up): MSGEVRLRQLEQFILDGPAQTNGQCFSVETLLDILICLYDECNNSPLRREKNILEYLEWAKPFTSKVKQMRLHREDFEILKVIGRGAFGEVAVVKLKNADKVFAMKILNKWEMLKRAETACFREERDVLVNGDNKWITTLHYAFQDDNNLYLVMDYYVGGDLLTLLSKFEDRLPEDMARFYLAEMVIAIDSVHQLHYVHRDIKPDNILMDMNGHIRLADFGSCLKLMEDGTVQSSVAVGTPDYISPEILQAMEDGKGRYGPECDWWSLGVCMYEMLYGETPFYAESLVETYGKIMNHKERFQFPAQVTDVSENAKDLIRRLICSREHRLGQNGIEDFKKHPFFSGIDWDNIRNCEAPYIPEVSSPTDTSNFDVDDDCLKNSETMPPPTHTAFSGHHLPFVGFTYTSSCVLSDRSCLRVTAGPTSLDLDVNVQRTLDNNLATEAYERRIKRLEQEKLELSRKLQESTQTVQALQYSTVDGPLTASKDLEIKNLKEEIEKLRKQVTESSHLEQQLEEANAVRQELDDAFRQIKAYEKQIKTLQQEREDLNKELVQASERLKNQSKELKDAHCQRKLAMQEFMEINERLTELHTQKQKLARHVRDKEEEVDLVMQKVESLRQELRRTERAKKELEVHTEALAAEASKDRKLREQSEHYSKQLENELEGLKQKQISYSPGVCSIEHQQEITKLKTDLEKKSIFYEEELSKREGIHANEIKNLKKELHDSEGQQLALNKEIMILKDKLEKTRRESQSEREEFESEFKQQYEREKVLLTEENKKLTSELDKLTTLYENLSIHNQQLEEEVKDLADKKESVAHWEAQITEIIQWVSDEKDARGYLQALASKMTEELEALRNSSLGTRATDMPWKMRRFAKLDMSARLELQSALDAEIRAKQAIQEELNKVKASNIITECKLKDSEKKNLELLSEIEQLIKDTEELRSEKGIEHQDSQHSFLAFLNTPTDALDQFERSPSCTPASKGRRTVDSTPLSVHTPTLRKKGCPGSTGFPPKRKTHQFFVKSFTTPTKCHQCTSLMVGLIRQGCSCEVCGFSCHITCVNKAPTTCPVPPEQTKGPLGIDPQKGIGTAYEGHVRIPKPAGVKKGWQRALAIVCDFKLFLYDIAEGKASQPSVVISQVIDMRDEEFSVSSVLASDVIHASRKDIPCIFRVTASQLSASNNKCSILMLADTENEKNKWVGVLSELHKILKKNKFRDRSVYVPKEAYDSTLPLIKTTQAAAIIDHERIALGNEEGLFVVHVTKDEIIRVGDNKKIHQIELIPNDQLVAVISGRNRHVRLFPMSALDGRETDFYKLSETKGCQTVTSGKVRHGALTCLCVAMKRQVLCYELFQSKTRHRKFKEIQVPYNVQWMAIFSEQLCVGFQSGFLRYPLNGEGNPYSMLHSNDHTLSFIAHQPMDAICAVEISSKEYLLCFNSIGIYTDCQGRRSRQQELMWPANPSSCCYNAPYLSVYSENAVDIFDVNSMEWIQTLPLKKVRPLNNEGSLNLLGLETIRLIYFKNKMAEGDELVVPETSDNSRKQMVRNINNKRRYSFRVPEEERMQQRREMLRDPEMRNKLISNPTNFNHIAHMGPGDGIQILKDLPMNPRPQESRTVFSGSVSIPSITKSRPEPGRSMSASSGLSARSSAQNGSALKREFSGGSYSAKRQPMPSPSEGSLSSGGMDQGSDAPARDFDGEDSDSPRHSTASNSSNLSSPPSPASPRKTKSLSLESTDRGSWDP
# CDK2 CCNA2 (human) = CDK2 CCNA2 (human) (UniProt P24941+P20248)
# CDK5 CDK5R1 p35 (human) = CDK5 CDK5R1 p35 (human) (UniProt Q00535+Q15078)
# CLK2 (human) = CLK2 (human) (UniProt P49760)
# CLK2 (human), sequence (P49760 whole entry, looked up): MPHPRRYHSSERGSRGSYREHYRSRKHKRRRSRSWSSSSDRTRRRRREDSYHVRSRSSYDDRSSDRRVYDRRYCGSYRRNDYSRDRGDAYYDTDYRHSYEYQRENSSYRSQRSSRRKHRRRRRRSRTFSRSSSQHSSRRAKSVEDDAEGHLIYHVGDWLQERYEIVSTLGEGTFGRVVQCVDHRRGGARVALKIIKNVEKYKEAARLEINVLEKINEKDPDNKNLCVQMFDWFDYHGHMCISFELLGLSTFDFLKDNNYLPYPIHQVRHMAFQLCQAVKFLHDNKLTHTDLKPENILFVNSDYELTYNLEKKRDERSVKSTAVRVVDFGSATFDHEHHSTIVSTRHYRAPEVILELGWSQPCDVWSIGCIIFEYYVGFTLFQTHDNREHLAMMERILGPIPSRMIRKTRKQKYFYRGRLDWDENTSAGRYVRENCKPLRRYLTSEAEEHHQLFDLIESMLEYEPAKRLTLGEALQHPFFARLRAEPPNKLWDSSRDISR
# CSF1R (human) = CSF1R (human) (UniProt P07333)
# DCLK2 (human) = DCLK2 (human) (UniProt Q8N568)
# DSTYK (human) = DSTYK (human) (UniProt Q6XUX3)
# EPHA1 (human) = EPHA1 (human) (UniProt P21709)
# EPHA6 (human) = EPHA6 (human) (UniProt Q9UF33)
# EPHB2 (human) = EPHB2 (human) (UniProt P29323)
# EPHB2 (human), sequence (P29323 whole entry, looked up): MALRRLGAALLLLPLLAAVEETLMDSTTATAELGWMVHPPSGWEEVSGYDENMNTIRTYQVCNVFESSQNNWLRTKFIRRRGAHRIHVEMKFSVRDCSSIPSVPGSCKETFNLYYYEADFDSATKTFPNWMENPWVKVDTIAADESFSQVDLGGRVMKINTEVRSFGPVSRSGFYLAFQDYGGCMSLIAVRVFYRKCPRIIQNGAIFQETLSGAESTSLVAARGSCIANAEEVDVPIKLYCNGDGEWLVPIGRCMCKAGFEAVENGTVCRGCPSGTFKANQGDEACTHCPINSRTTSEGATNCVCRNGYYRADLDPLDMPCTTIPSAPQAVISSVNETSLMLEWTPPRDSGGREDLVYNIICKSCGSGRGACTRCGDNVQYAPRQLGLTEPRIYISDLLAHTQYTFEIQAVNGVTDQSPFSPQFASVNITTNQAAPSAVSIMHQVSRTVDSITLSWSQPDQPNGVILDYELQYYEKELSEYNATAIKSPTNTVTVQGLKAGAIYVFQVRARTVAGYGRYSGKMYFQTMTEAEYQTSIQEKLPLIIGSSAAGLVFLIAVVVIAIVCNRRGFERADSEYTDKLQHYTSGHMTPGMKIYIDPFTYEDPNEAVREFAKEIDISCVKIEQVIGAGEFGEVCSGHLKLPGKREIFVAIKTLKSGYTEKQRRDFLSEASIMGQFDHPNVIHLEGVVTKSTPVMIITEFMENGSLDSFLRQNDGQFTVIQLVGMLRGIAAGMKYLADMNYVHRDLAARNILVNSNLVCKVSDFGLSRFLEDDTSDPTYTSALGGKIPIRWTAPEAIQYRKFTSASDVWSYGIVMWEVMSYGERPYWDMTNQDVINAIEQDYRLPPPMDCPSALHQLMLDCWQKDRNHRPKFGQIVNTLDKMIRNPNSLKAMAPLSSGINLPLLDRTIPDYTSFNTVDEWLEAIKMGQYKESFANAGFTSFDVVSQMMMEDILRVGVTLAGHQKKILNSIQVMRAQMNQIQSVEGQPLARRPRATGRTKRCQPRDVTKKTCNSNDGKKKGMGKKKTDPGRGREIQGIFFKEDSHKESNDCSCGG
# EPHB3 (human) = EPHB3 (human) (UniProt P54753)
# FGFR3 (human) = FGFR3 (human) (UniProt P22607)
# FRK (human) = FRK (human) (UniProt P42685)
# FRK (human), sequence (P42685 whole entry, looked up): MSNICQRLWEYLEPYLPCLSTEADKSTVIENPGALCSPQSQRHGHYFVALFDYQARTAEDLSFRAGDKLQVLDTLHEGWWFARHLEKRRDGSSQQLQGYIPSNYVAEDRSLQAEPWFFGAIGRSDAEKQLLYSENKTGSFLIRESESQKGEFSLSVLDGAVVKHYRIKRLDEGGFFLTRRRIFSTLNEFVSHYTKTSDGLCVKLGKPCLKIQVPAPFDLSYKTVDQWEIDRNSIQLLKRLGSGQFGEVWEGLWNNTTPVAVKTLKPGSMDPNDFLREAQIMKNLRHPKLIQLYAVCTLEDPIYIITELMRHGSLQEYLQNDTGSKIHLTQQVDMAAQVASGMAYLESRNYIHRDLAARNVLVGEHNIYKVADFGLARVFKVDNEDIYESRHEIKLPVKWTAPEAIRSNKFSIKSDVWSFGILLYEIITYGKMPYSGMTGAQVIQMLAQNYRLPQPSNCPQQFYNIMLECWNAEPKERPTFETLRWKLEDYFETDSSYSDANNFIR
# GSK3A (human) = GSK3A (human) (UniProt P49840)
# INSRR (human) = INSRR (human) (UniProt P14616)
# LRRK2 (human) = LRRK2 (human) (UniProt Q5S007)
# LTK (human) = LTK (human) (UniProt P29376)
# MAP2K1 (human) = MAP2K1 (human) (UniProt Q02750)
# MAP2K2 (human) = MAP2K2 (human) (UniProt P36507)
# MAP3K10 (human) = MAP3K10 (human) (UniProt Q02779)
# MAP4K2 (human) = MAP4K2 (human) (UniProt Q12851)
# MAPK13 (human) = MAPK13 (human) (UniProt O15264)
# MAPKAPK3 (human) = MAPKAPK3 (human) (UniProt Q16644)
# MARK3 (human) = MARK3 (human) (UniProt P27448)
# MYLK2 (human) = MYLK2 (human) (UniProt Q9H1R3)
# MYLK2 (human), sequence (Q9H1R3 whole entry, looked up): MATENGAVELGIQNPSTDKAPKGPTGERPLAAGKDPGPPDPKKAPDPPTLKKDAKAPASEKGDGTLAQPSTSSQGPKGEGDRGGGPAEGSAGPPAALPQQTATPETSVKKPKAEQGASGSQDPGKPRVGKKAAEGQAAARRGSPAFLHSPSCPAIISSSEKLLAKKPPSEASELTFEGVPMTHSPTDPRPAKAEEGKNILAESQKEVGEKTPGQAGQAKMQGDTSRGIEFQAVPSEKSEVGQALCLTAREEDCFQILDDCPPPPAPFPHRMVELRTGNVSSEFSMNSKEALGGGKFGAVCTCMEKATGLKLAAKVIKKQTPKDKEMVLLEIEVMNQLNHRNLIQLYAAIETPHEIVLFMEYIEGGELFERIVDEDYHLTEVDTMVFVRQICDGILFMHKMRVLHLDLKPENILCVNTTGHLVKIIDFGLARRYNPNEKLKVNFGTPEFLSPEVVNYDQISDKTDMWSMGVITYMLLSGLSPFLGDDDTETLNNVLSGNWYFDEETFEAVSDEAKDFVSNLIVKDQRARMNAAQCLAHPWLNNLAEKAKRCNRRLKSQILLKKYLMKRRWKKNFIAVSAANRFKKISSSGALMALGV
# NEK9 (human) = NEK9 (human) (UniProt Q8TD19)
# PAK6 (human) = PAK6 (human) (UniProt Q9NQU5)
# PAK6 (human), sequence (Q9NQU5 whole entry, looked up): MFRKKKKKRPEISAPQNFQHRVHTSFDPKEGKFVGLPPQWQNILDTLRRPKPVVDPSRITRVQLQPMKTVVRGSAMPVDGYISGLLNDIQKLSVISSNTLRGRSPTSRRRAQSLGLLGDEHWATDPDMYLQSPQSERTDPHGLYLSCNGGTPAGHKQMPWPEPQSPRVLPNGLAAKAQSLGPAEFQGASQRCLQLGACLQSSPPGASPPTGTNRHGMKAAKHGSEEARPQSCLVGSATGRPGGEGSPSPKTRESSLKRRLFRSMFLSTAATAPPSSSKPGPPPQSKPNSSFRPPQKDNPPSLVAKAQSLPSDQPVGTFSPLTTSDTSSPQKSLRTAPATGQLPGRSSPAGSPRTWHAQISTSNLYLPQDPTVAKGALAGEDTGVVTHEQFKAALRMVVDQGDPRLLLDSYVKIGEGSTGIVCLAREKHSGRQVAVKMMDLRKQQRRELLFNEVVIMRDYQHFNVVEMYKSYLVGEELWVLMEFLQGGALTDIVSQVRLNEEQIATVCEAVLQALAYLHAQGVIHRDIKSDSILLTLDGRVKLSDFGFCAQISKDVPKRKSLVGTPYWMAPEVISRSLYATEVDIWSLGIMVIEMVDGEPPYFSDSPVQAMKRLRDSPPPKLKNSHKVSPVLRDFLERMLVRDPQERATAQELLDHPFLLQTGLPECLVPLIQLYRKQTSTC
# PASK (human) = PASK (human) (UniProt Q96RG2)
# PHKG1 (human) = PHKG1 (human) (UniProt Q16816)
# PIM2 (human) = PIM2 (human) (UniProt Q9P1W9)
# PRKACA (human) = PRKACA (human) (UniProt P17612)
# RPS6KA1 KD1 KD2 (human) = RPS6KA1 KD1 KD2 (human) (UniProt Q15418)
# RPS6KA3 KD1 KD2 (human) = RPS6KA3 KD1 KD2 (human) (UniProt P51812)
# STK16 (human) = STK16 (human) (UniProt O75716)
# ULK1 (human) = ULK1 (human) (UniProt O75385)
# ULK2 (human) = ULK2 (human) (UniProt Q8IYT8)
smiles,measurement,setting,value
Cc1[nH]c(/C=C2\C(=O)Nc3ccc(S(=O)(=O)N(C)c4cccc(Cl)c4)cc32)c(C)c1C(=O)N1CCN(C)CC1,residual activity,ACVRL1 (human),103%
same,residual activity,AKT1 (human),98.8%
same,residual activity,BLK (human),51.7%
same,residual activity,BRSK1 (human),101%
same,residual activity,BRSK2 (human),89%
same,residual activity,CAMKK2 (human),75.2%
same,residual activity,CDC42BPA (human),105%
same,residual activity,CDK2 CCNA2 (human),103%
same,residual activity,CDK5 CDK5R1 p35 (human),95.8%
same,residual activity,CLK2 (human),5.1%
same,residual activity,CSF1R (human),64.9%
same,residual activity,DCLK2 (human),90.4%
same,residual activity,DSTYK (human),97.2%
same,residual activity,EPHA1 (human),108%
same,residual activity,EPHA6 (human),24%
same,residual activity,EPHB2 (human),91.8%
same,residual activity,EPHB3 (human),98.6%
same,residual activity,FGFR3 (human),74.1%
same,residual activity,FRK (human),95.4%
same,residual activity,GSK3A (human),98.4%
same,residual activity,INSRR (human),93%
same,residual activity,LRRK2 (human),6.63%
same,residual activity,LTK (human),45.5%
same,residual activity,MAP2K1 (human),89.3%
same,residual activity,MAP2K2 (human),99.5%
same,residual activity,MAP3K10 (human),74%
same,residual activity,MAP4K2 (human),53.5%
same,residual activity,MAPK13 (human),100%
same,residual activity,MAPKAPK3 (human),96.9%
same,residual activity,MARK3 (human),41.9%
same,residual activity,MYLK2 (human),73.8%
same,residual activity,NEK9 (human),92.5%
same,residual activity,PAK6 (human),108%
same,residual activity,PASK (human),106%
same,residual activity,PHKG1 (human),45.2%
same,residual activity,PIM2 (human),103%
same,residual activity,PRKACA (human),100%
same,residual activity,RPS6KA1 KD1 KD2 (human),54.4%
same,residual activity,RPS6KA3 KD1 KD2 (human),76.8%
same,residual activity,STK16 (human),95.4%
same,residual activity,ULK1 (human),5.17%
same,residual activity,ULK2 (human),16.8%
O=C1NC(=O)c2c1c1c3ccccc3n3c1c1c2c2ccccc2n1C1CCC3O1,residual activity,ACVRL1 (human),78.6%
same,residual activity,AKT1 (human),63.9%
same,residual activity,BLK (human),37.7%
same,residual activity,BRSK1 (human),14.8%
same,residual activity,BRSK2 (human),13.6%
same,residual activity,CAMKK2 (human),7.93%
same,residual activity,CDC42BPA (human),84%
same,residual activity,CDK2 CCNA2 (human),15.6%
same,residual activity,CDK5 CDK5R1 p35 (human),23.3%
same,residual activity,CLK2 (human),52.1%
same,residual activity,CSF1R (human),29.3%
same,residual activity,DCLK2 (human),89.6%
same,residual activity,DSTYK (human),45.5%
same,residual activity,EPHA1 (human),90.1%
same,residual activity,EPHA6 (human),63.9%
same,residual activity,EPHB2 (human),98.4%
same,residual activity,EPHB3 (human),93.2%
same,residual activity,FGFR3 (human),36.3%
same,residual activity,FRK (human),102%
same,residual activity,GSK3A (human),2.19%
same,residual activity,INSRR (human),7.16%
same,residual activity,LRRK2 (human),1.91%
same,residual activity,LTK (human),21.8%
same,residual activity,MAP2K1 (human),29.5%
same,residual activity,MAP2K2 (human),87.9%
same,residual activity,MAP3K10 (human),2.66%
same,residual activity,MAP4K2 (human),3.75%
same,residual activity,MAPK13 (human),114%
same,residual activity,MAPKAPK3 (human),93.1%
same,residual activity,MARK3 (human),8.53%
same,residual activity,MYLK2 (human),7.76%
same,residual activity,NEK9 (human),23.4%
same,residual activity,PAK6 (human),85.4%
same,residual activity,PASK (human),43.3%
same,residual activity,PHKG1 (human),2.75%
same,residual activity,PIM2 (human),1.86%
same,residual activity,PRKACA (human),44.7%
same,residual activity,RPS6KA1 KD1 KD2 (human),1.58%
same,residual activity,RPS6KA3 KD1 KD2 (human),2.35%
same,residual activity,STK16 (human),58.1%
same,residual activity,ULK1 (human),73.1%
same,residual activity,ULK2 (human),89.1%
Nc1ccc2ncnc(NCCc3ccc(Oc4ccccc4)cc3)c2c1,residual activity,ACVRL1 (human),93.5%
same,residual activity,AKT1 (human),98.2%
same,residual activity,BLK (human),97.1%
same,residual activity,BRSK1 (human),101%
same,residual activity,BRSK2 (human),102%
same,residual activity,CAMKK2 (human),92.6%
same,residual activity,CDC42BPA (human),102%
same,residual activity,CDK2 CCNA2 (human),95.8%
same,residual activity,CDK5 CDK5R1 p35 (human),103%
same,residual activity,CLK2 (human),83%
same,residual activity,CSF1R (human),106%
same,residual activity,DCLK2 (human),99.1%
same,residual activity,DSTYK (human),101%
same,residual activity,EPHA1 (human),86.6%
same,residual activity,EPHA6 (human),92.8%
same,residual activity,EPHB2 (human),97.7%
same,residual activity,EPHB3 (human),97.3%
same,residual activity,FGFR3 (human),101%
same,residual activity,FRK (human),100%
same,residual activity,GSK3A (human),110%
same,residual activity,INSRR (human),98.7%
same,residual activity,LRRK2 (human),98.5%
same,residual activity,LTK (human),106%
same,residual activity,MAP2K1 (human),107%
same,residual activity,MAP2K2 (human),94.9%
same,residual activity,MAP3K10 (human),91.9%
same,residual activity,MAP4K2 (human),100%
same,residual activity,MAPK13 (human),100%
same,residual activity,MAPKAPK3 (human),101%
same,residual activity,MARK3 (human),86.4%
same,residual activity,MYLK2 (human),97.6%
same,residual activity,NEK9 (human),95.8%
same,residual activity,PAK6 (human),105%
same,residual activity,PASK (human),103%
same,residual activity,PHKG1 (human),96.4%
same,residual activity,PIM2 (human),119%
same,residual activity,PRKACA (human),88.6%
same,residual activity,RPS6KA1 KD1 KD2 (human),108%
same,residual activity,RPS6KA3 KD1 KD2 (human),101%
same,residual activity,STK16 (human),94.7%
same,residual activity,ULK1 (human),105%
same,residual activity,ULK2 (human),103%
